Like-named read-outs stand apart in the source and are kept apart here.
How the values were obtained:
5-HT2c = molecular target: T1, 5-HT2c (Homo sapiens, UniProt P28335); experiment: Radioligand binding, 5-HT2c ([3H]Mesulergine); conditions: read-out: Binding affinity (Inhibition rate % at 10 μM) 5HT2c
T1 construct: purchased Euroscreen/BioSignal Packard Inc
T1 sequence (P28335 33-458): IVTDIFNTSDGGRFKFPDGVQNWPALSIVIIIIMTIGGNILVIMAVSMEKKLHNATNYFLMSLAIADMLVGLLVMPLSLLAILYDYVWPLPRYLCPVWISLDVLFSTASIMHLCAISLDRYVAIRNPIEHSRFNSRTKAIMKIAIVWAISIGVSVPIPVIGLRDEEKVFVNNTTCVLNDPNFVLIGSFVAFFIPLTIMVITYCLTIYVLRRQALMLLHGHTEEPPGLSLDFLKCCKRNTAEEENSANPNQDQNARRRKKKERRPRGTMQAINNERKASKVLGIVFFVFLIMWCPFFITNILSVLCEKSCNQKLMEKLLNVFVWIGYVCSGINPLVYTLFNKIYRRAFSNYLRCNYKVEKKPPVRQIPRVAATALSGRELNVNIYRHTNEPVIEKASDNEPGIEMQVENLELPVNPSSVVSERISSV
Method: (§1) Radioligand bindings were performed according to the test method provided by the supplier of receptor membrane (Euroscreen/BioSignal Packard Inc.).

hD4.2 receptor = molecular target: T2, hD4.2 receptor (Homo sapiens, UniProt P21917, DEL265-296); experiment: Radioligand binding, dopamine D4 ([3H]YM-09151-2); conditions: read-out: Binding affinity (Inhibition rate % at 10 μM) D4
T2 construct: purchased BioSignal Packard Inc., Montreal, Canada
T2 sequence (P21917 with tags, fused parts or gaps DEL265-296): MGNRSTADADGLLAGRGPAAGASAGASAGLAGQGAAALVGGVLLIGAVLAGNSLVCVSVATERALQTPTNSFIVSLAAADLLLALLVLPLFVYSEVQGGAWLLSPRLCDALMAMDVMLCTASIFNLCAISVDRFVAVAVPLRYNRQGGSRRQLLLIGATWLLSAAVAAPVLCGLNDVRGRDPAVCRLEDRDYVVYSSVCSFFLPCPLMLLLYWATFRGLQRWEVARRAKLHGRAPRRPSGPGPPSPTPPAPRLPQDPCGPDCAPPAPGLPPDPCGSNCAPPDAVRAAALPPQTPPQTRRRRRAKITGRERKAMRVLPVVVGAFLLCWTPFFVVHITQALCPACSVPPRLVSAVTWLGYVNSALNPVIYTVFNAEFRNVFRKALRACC

D1 = D1 (Homo sapiens, UniProt P21728); experiment: Radioligand binding for selectivity, D1; conditions: read-out: Binding affinity (Inhibition rate % at 10 μM) D1
Chain of D1 (P21728 whole entry): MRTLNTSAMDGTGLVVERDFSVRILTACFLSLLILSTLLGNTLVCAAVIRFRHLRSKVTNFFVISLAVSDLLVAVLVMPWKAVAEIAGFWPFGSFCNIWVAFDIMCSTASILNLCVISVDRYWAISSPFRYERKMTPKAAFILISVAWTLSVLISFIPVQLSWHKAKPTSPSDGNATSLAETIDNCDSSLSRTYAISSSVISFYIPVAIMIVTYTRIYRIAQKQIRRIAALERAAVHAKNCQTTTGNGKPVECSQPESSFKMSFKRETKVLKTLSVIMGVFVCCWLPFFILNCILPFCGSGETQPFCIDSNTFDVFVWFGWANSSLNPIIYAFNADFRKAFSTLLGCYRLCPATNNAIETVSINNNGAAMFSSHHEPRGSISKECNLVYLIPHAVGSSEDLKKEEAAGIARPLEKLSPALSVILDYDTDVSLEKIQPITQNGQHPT

hD2L receptor = molecular target: T3, hD2L receptor (Homo sapiens, UniProt P14416); experiment: Radioligand binding, dopamine D2 ([3H]spiperone); conditions: read-out: Binding affinity (Inhibition rate % at 10 μM) D2
T3 construct: purchased BioSignal Packard Inc., Montreal, Canada
T3 sequence (P14416 whole entry): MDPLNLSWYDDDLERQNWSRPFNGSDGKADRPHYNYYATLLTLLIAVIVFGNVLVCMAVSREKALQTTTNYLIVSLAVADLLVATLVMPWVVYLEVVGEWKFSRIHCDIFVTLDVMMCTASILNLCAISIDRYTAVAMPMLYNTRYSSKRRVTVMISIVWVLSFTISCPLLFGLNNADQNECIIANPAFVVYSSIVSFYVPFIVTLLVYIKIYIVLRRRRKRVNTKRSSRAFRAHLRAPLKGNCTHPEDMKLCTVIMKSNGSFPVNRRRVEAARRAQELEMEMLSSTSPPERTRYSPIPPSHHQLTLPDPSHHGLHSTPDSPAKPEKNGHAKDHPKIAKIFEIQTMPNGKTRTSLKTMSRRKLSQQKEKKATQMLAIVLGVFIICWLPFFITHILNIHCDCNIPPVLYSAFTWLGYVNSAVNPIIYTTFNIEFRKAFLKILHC

5-HT2a = molecular target: T4, 5-HT2a (Homo sapiens, UniProt P28223); experiment: Radioligand binding, 5-HT2a ([3H]Ketanserin); conditions: read-out: Binding affinity (Inhibition rate % at 10 μM) 5HT2a
T4 construct: purchased Euroscreen/BioSignal Packard Inc
T4 sequence (P28223 whole entry): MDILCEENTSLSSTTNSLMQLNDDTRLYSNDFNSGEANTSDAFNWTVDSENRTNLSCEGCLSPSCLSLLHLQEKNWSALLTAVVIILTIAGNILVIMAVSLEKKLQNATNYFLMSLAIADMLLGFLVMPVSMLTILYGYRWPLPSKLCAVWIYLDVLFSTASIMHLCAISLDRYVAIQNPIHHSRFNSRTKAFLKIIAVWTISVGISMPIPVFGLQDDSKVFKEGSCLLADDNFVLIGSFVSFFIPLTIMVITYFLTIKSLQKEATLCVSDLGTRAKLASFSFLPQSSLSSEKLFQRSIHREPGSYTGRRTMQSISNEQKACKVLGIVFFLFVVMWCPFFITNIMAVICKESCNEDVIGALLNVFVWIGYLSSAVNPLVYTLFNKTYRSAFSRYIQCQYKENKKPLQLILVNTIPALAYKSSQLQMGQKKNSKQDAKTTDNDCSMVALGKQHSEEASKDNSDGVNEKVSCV
Method: as §1

hD3 receptor = molecular target: T5, hD3 receptor (Homo sapiens, UniProt P35462); experiment: Radioligand binding, dopamine D3 ([3H]spiperone); conditions: read-out: Binding affinity (Inhibition rate % at 10 μM) D3
T5 construct: purchased BioSignal Packard Inc., Montreal, Canada
T5 sequence (P35462 whole entry): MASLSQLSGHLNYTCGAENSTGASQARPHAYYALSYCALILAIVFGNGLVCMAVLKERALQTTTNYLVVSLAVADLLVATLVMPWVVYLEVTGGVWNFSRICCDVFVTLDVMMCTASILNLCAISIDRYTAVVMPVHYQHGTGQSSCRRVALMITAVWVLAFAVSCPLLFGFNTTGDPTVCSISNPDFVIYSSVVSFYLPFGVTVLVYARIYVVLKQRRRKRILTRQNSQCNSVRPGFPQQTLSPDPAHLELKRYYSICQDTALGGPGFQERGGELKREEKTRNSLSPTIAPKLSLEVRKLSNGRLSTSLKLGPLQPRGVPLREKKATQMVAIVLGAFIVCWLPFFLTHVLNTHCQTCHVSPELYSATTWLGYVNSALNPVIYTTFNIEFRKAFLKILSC

5-HT1a = molecular target: T6, 5-HT1a (Homo sapiens, UniProt P08908); experiment: Radioligand binding, 5-HT1a ([3H]8-OH-DPAT); conditions: read-out: Binding affinity (Inhibition rate % at 10 μM) 5HT1a
T6 construct: purchased Euroscreen/BioSignal Packard Inc
T6 sequence (P08908 1-422): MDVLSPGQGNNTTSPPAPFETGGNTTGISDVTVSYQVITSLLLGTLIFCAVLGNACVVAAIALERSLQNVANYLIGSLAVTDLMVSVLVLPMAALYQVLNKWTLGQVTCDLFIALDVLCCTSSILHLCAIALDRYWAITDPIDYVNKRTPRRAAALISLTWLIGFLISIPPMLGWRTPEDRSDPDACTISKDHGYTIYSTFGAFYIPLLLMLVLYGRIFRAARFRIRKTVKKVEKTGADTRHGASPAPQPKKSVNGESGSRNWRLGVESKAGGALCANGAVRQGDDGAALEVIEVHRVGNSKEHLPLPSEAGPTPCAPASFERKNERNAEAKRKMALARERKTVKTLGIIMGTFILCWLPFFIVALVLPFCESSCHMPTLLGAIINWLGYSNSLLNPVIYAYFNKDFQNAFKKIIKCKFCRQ
Method: as §1

5-HT7 = molecular target: T7, 5-HT7 (Homo sapiens, UniProt P34969); experiment: Radioligand binding, 5-HT7 ([3H]LSD); conditions: read-out: Binding affinity (Inhibition rate % at 10 μM) 5HT7
T7 construct: purchased Euroscreen/BioSignal Packard Inc
T7 sequence (P34969 whole entry): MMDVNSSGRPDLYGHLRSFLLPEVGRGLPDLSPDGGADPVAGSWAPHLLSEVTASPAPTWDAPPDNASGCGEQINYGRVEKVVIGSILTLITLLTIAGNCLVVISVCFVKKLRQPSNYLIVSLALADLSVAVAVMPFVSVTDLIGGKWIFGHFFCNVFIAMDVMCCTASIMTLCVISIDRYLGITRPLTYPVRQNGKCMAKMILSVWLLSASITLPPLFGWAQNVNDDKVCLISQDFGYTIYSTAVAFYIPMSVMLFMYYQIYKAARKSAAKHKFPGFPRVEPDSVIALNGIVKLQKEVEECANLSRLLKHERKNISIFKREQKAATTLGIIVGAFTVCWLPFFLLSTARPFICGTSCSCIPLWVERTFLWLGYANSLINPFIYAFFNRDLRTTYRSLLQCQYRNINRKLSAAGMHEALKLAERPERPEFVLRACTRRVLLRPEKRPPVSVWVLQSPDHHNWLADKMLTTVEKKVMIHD
Method: as §1

[1] = molecular target: T8, human serotonin 5-HT6 receptor (Homo sapiens, UniProt P50406); experiment: [3H]LSD binding at cloned 5-HT6 receptors; conditions: for 5-HT6 affinity compared with known selective antagonists: in words; for inhibition at 10 µM: read-out: Binding affinity (Inhibition rate % at 10 μM) 5HT6
T8 construct: made in house; host or cells: Sf21 insect cells (pBacPAK8 baculovirus vector)
T8 sequence (P50406 whole entry): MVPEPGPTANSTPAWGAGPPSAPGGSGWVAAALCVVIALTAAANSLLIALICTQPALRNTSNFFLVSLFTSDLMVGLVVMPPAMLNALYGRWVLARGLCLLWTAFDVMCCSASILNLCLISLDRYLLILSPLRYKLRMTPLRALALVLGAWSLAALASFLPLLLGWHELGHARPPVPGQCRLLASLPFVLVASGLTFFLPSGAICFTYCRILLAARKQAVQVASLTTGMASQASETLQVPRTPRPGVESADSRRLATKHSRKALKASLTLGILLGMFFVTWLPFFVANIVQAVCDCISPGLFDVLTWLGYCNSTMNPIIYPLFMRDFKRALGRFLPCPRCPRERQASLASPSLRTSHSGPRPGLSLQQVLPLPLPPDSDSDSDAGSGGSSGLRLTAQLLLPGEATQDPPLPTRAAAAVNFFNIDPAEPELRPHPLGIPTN

[2] = [3H]LSD 1.87 nM, cloned receptor membranes, 37° C., 60 min, read-out: IC50

Structure (SMILES) | inhibition at 10 µM (5-HT2c) [%] | inhibition at 10 µM (hD4.2 receptor) [%] | inhibition at 10 µM (D1) [%] | inhibition at 10 µM (hD2L receptor) [%] | inhibition at 10 µM (5-HT2a) [%] | inhibition at 10 µM (hD3 receptor) [%] | inhibition at 10 µM (5-HT1a) [%] | melting point | inhibition at 10 µM (5-HT7) [%] | IC50 [1, 2] [nM] | 5-HT6 affinity compared with known selective antagonists [1] | inhibition at 10 µM [1] [%] | IC50 [1] [nM]
COc1ccc(C2(C)C(=O)Nc3cc(Cl)cc(Cl)c3C2=O)cc1 (stereo not shown) [Example 12, 5,7-dichloro-3-(4-methoxy-phenyl)-3-methyl-1H-quinoline-2,4-dione] | 5.7 | 0 | 15.7 | 16.3 | 8.5 | 24 | 40.2 | 210 to 212 °C | 23.1 | 917 | almost same affinities as or better affinities than known selective antagonists | 73.3 | –
CC1(c2ccc(Br)cc2)C(=O)Nc2cc(Cl)cc(Cl)c2C1=O (stereo not shown) [Example 18, 3-(4-bromo-phenyl)-5,7-dichloro-3-methyl-1H-quinoline-2,4-dione] | 10.7 | 0 | 37.7 | 16 | 16.9 | 12.5 | 8 | 237 to 238 °C | 7.8 | 494 | – | 73.8 | –
CC1(c2cccc(OCc3ccccc3)c2)C(=O)Nc2cc(Cl)cc(Cl)c2C1=O (stereo not shown) [Example 19, 3-(3-benzyloxy-phenyl)-5,7-dichloro-3-methyl-1H-quinoline-2,4-dione] | 0 | 0 | 92.6 | 37.8 | 67.3 | 37.4 | 88.8 | 201 to 203 °C | 69.5 | 134 | – | 74.9 | –
CC1(c2cccc(O)c2)C(=O)Nc2cc(Cl)cc(Cl)c2C1=O (stereo not shown) [Example 20, 3-(3-hydroxy-phenyl)-5,7-dichloro-3-methyl-1H-quinoline-2,4-dione] | 4.7 | 0 | 64.6 | 10.9 | 46.1 | 13.2 | 0 | 248 °C (dec.) | 29.2 | 49 | almost same affinities as or better affinities than known selective antagonists | 91.7 | –
COc1ccc(C2(C)C(=O)Nc3cc(Cl)cc(Cl)c3C2=O)cc1[N+](=O)[O-] (stereo not shown) [Example 21, 5,7-dichloro-3-(4-methoxy-3-nitro-phenyl)-3-methyl-1H-quinoline-2,4-dione] | 10.8 | 0 | 40.2 | 10.5 | 16.3 | 16.4 | 15.9 | 255 to 256 °C | 0 | 1230 | – | 73.7 | –
CC1(c2ccc(O)c([N+](=O)[O-])c2)C(=O)Nc2cc(Cl)cc(Cl)c2C1=O (stereo not shown) [Example 22, 5,7-dichloro-3-(4-hydroxy-3-nitro-phenyl)-3-methyl-1H-quinoline-2,4-dione] | 2.5 | 0 | 35.7 | 11.2 | 50.9 | 34 | 68.7 | 239 to 240 °C | 36.3 | 1010 | – | 72.5 | –
CC1(c2ccc(OCc3ccccc3)c(Br)c2)C(=O)Nc2cc(Cl)cc(Cl)c2C1=O (stereo not shown) [Example 23, 3-(4-benzyloxy-3-bromo-phenyl)-5,7-dichloro-3-methyl-1H-quinoline-2,4-dione] | 21.9 | 0.7 | 16.8 | 9.6 | 26.4 | 32.5 | 64.9 | 189 to 190 °C | 27.4 | 1260 | – | 70.6 | –
CC1(c2ccc(O)c(Br)c2)C(=O)Nc2cc(Cl)cc(Cl)c2C1=O (stereo not shown) [Example 24, 3-(3-bromo-4-hydroxy-phenyl)-5,7-dichloro-3-methyl-1H-quinoline-2,4-dione] | 22.8 | 0 | 13 | 5 | 11.5 | 16.6 | 50.4 | 228 to 229 °C | 5.5 | 126 | – | 71 | –
C[C@H](NC(=O)Oc1ccc(C2(C)C(=O)Nc3cc(Cl)cc(Cl)c3C2=O)cc1)c1ccccc1 (stereo partly shown) [Example 25] | 4 | 0 | 54.1 | 8.4 | 16.7 | 10.2 | 35.9 | 110 to 115 °C | 30.6 | – | – | 69.8 | 816
C[C@H](NC(=O)Oc1cccc(C2(C)C(=O)Nc3cc(Cl)cc(Cl)c3C2=O)c1)c1ccccc1 (stereo partly shown) [Example 26] | 9.1 | 0.5 | 50.5 | 26.5 | 38.1 | 14.8 | 0 | 91 to 94 °C | 12.7 | – | – | 70 | 980

— patent publication US7592457B2 (Korea Research Institute of Chemical Technology, priority 2004, dated 2009)
